These results are taken from patent publication US8921364B2, “Modulators of calcium release-activated calcium channel” (Rhizen Pharmaceuticals SA, priority 2009, dated 2014).

The subject of experiment [1] is female Balb/C mice. The experiment in a line: Concanavalin (Con) A induced hepatitis in female Balb/C mice. It is filed as in vivo. The settings on record: 10 mg/kg b. wt, oral, 1 hour prior to Con A, blood after 24 hours. How it is done:
Con A is often used to prepare experimental animals with high levels of cytotoxic T-lymphocytes, because these cells are involved in the development of viral infections in humans. In this model, animals were administered test compounds orally 1 hour prior to intravenous administration of Con A. Blood samples were collected after 24 hours for determination of Serum glutamic oxaloacetic transaminase (SGOT) and Serum glutamic pyruvic transaminase (SGPT) in Serum.

Experiment [2] has as its system female Balb/C mice. Nature of the experiment: TNCB induced contact hypersensitivity in female Balb/c mice. It is filed as in vivo. The settings on record: 10 mg/kg b. wt, oral, 24 h after TNCB challenge. On the procedure: Contact hypersensitivity is a simple in vivo assay of cell-mediated immune function. In this procedure, exposure of epidermal cells to exogenous haptens results in a delayed type hypersensitive reaction that can be measured and quantified. Briefly, 7% TNCB solution was applied to the abdominal region of 8 week old Balb/c mice. Ear thickness was measured 7 days after TNCB sensitization. Compounds were administered orally followed by an application of 1% TNCB to inside and outside of ear pinnae. Ear thickness was measured 24 h after TNCB challenge

Another experiment deals with male Balb/c mice. Nature of the experiment: Foot paw delayed type hypersensitivity in male Balb/c mice. It is filed as in vivo. The settings on record: 10 mg/kg, daily treatment day 0 to day 10. On the procedure:
DTH swelling responses can be used to follow the activity of immunosuppressive molecules and/or suppressor T cells in vivo. Intradermal antigen (methylated BSA) injections were given to mice (at base of tail) on day 0 and day 7. Compounds were administered once daily from day 0 to day 10 Methylated BSA was injected into the right hind footpad of animals on day 10. Weight difference induced by antigen was determined by weighing the right and left hind paws 24 h after injection of methylated BSA (day 11).

A further experiment has as its system guinea pigs. Nature of the experiment: OVA-induced asthma in guinea pigs. It is filed as in vivo. The conditions noted are these: 10 mg/kg b. wt, oral, 1 h before OVA challenge. On the procedure:
Pulmonary eosinophilia and airway remodelling in conjunction with altered neural control of airway tone and airway epithelial desquamation contributes to Airway Hyper-responsiveness (AHR) in asthma. For determination of eosinophil reduction, animals were sensitized with OVA on d0, d7, and d14 followed by another round (0.1% w/v) through inhalation on d19 & d20. Compounds were administered orally 1 h before OVA challenge (0.3%). BAL fluid was collected on d22 for differential count and cytokine estimation. For determination of change in respiratory parameters, animals were subjected to whole body plethysmography immediately after ova challenge.

The next experiment relates to male DBA/1 Ola HSD mice. Nature of the experiment: Collagen-induced arthritis in male DBA/1 Ola HSD mice. It is filed as in vivo. The settings on record: 10 mg/kg b. wt, daily, po, qd. On the procedure:
Collagen induced arthritis in rodent models have been widely used to illustrate and understand the development of the disease besides serving as a surrogate for validation of therapeutic targets for human rheumatoid arthritis. Mice were anesthetized with Isoflurane and given 150 μl of Bovine Type II collagen in Freund's complete adjuvant injections (day 0 and day 21). Treatment was initiated on study day 0 and continued once daily, every day (po, qd). Starting on day 18, clinical scores were given daily for each of the paws (right front, left front, right rear, left rear) and continued till the day of sacrifice (day 34). Daily administration of the test compound (Example 69) at 10 mg/kg b. wt alleviated arthritic symptoms, disease progression, and incidence by 30% compared to the control animals.

A further experiment addresses CRAC channels (Homo sapiens (Human), UniProt Q96D31). The experiment in a line: In-vitro CRAC channel inhibition assay in Jurkat cells (thapsigargin-induced calcium influx). It is filed as cell-based. The conditions noted are these: Jurkat cells, thapsigargin-induced calcium influx. How it is done:
Inhibition of CRAC channels was determined following thapsigargin (Sigma, Cat # T9033) induced endoplasmic calcium release in Jurkat cells. […] Cells were centrifuged and re-suspended in equal volumes ° f Ca^2+ and Mg^2+ free Hanks buffer and Fluo-8 NW dye (ABD Bioquest, Inc., Sunnyvale, Calif.) loading solution at 2×10^5 cells/100 μl/well in 96-well black plate. Plate is incubated at 37° C., 5% CO2 for 30 min followed by further 15 min incubation at room temperature. Test compounds (DMSO stocks diluted in Ca^2+ and Mg^2+ free Hanks buffer) at desired concentrations were added to the wells and incubated for […] Thapsigargin (1 μM final concentration) was added to the wells and incubated for 15 min to inhibit the Sarco-endoplasmic reticulum Ca^2+ ATPase pump thereby depleting endoplasmic calcium and raising cytosolic calcium concentrations. Store-operated calcium entry was initiated by adding extracellular Ca^2+ to a final concentration of 1.8 mM. Fluorescence was monitored over […] on a plate reader (BMG Labtech., Germany) with excitation at 485 nm and an emission wavelength at 520 nm. Data were analyzed using GraphPad Prism. IC50 for each compound was determined based on the percent inhibition of thapsigargin-induced calcium influx into cells.

The target of experiment [3] is CRAC channels over the voltage operated channels (VOC) (Homo sapiens (Human), UniProt Q96D31). The settings on record: Yonetoky et al.; cited from earlier work.

Counter-ions that a name gives are not always drawn.

CRAC channels, sequence (Q96D31 whole entry): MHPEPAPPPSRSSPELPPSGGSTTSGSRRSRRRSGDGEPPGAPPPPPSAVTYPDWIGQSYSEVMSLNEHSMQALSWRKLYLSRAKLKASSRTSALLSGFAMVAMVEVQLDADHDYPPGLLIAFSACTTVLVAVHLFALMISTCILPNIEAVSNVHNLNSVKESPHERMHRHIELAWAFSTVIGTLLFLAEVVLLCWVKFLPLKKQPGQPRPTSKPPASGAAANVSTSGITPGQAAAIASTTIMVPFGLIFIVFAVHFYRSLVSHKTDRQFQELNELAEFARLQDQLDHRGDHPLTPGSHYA
CRAC channels over the voltage operated channels (VOC), sequence (Q96D31 whole entry): as above

For `Cc1ncc(C(=O)Nc2ccc(-n3nc(C(F)(F)F)cc3C3CC3)cc2)c(C)n1` [Example 69, N-{4-[5-cyclopropyl-3-(trifluoromethyl)-1H-pyrazol-1-yl]phenyl}-2,4-dimethylpyrimidine-5-carboxamide], the “reduction in serum SGOT & SGPT” value in the experiment on female Balb/C mice [1] is recorded as over 85%. In the experiment on female Balb/C mice [2], the “reduction in ear inflammation” value was over 70%. Further, in the experiment on male Balb/c mice, the “reduction in antigen-induced paw inflammation” value is over 40%. Besides, the “reduction in blood eosinophils” value in the experiment on guinea pigs is on record as over 70%. Also, in the experiment on guinea pigs (plethysmography immediately after ova challenge), the “respiration (whole body plethysmography)” value was “improvement in respiration”. Besides, the “alleviation of arthritic symptoms, disease progression, and incidence compared to control animals” value in the experiment with male DBA/1 Ola HSD mice was 30%. Turning to `O=C(Nc1ccc(-n2nc(C(F)(F)F)cc2C2CC2)nc1)c1ccccc1F` [Example 106, N-(6-(5-cyclopropyl-3-(trifluoromethyl)-1H-pyrazol-1-yl)pyridin-3-yl)-2-fluorobenzamide], the IC50 at CRAC channels is 60 nM.

As for `O=C(Nc1ccc(-n2nc(C(F)(F)F)cc2C2CC2)nc1)c1cccc(F)c1F` [Example 107, N-{6-[5-cyclopropyl-3-(trifluoromethyl)-1H-pyrazol-1-yl]pyridin-3-yl}-2,3-difluorobenzamide], the IC50 at CRAC channels was 70.3 nM.

Turning to `O=C(Nc1ccc(-n2nc(C(F)(F)F)cc2C2CC2)nc1)c1c(F)cccc1F` [Example 108, N-{6-[5-cyclopropyl-3-(trifluoromethyl)-1H-pyrazol-1-yl]pyridin-3-yl}-2,6-difluorobenzamide], on CRAC channels, the IC50 was 50.6 nM. In the case of `O=C(Nc1ccc(-n2nc(C(F)(F)F)cc2C2CC2)nc1)c1cccnc1` [Example 111, N-{6-[5-cyclopropyl-3-(trifluoromethyl)-1H-pyrazol-1-yl]pyridin-3-yl}nicotinamide hydrochloride], on CRAC channels, the IC50 was determined as 47.2 nM. In the case of `Cc1ncccc1C(=O)Nc1ccc(-n2nc(C(F)(F)F)cc2C2CC2)nc1.Cl` [Example 112, N-{6-[5-cyclopropyl-3-(trifluoromethyl)-1H-pyrazol-1-yl]pyridin-3-yl}-2-methyl nicotinamide hydrochloride], the “% inhibition (1 uM)” value at CRAC channels is 36.44%. `O=C(Nc1ccc(-n2nc(C(F)(F)F)cc2C2CC2)nc1)c1ccncc1` [Example 113, N-{6-[5-cyclopropyl-3-(trifluoromethyl)-1H-pyrazol-1-yl]pyridin-3-yl}isonicotinamide hydrochloride]: on CRAC channels, the concentration for half-maximal inhibition (IC50) came out at 62.6 nM. Same read-out and setting: under `O=C(Nc1ccc(-n2nc(C(F)(F)F)cc2C2CC2)nc1)c1ccncc1F` [Example 114, N-{6-[5-cyclopropyl-3-(trifluoromethyl)-1H-pyrazol-1-yl]pyridin-3-yl}-3-fluoroisonicotinamide] stands 37.6 nM; under `O=C(Nc1c(F)cccc1F)c1ccc(-n2nc(C(F)(F)F)cc2C2CC2)nc1` [Example 122, 6-[5-cyclopropyl-3-(trifluoromethyl)-1H-pyrazol-1-yl]-N-(2,6-difluorophenyl) nicotinamide], 72.1 nM; under `O=C(Nc1cnc(-n2nc(C(F)(F)F)cc2C2CC2)nc1)c1c(F)cccc1F` [Example 124, N-{2-[5-cyclopropyl-3-(trifluoromethyl)-1H-pyrazol-1-yl]pyrimidin-5-yl}-2,6-difluorobenzamide], 295 nM. Same read-out and setting: under `Cc1ncsc1C(=O)Nc1ccc(-n2nc(C(F)(F)F)cc2CF)cc1` [Example 125, N-{4-[5-(fluoromethyl)-3-(trifluoromethyl)-1H-pyrazol-1-yl]phenyl}-4-methylthiazole-5-carboxamide] stands 373 nM. The same measure, in the same setting: under `Cc1ncsc1C(=O)Nc1ccc(-n2nc(C(F)(F)F)cc2C(F)F)cc1` [Example 126, N-{4-[5-(difluoromethyl)-3-(trifluoromethyl)-1H-pyrazol-1-yl]phenyl}-4-methyl thiazole-5-carboxamide] stands 52.6 nM. For the molecule `Cc1nnsc1C(=O)Nc1ccc(-n2nc(C(F)(F)F)cc2C(F)(F)F)cc1` [YM-58483], in experiment [3], the “selective index (CRAC channels over VOC)” value was 31. With “N-{4-[3-cyclopropyl-5-(difluoromethyl)-1H-pyrazol-1-yl]-3-fluorophenyl}-2,6-difluorobenzamide and N-{4-[5-cyclopropyl-3-(difluoromethyl)-1H-pyrazol-1-yl]-3-fluorophenyl}-2,6-difluorobenzamide [Example 135]”, on CRAC channels, the “% inhibition (1 uM)” value is listed as 100%.
